# Experimental data: US9586994B2, “CD44V6-derived peptides for treating breast cancer” (KARLSRUHER INSTITUT FÜR TECHNOLOGIE, priority 2012, dated 2017)
# No end group written: not given here. MeO‑PEG‑COOH = methoxy-PEG carboxylic acid, 750 or 2000 Da
# Key:
# CD44v6 [1] = test: HGF-induced activation of Met and ERK in L3.6pl cells (Western blot); assay type: cell-based, human
# Experimental: (§1) Serum-starved cells (24 hours) were induced with the growth factor HGF (10 ng/mL) at 37° C. for 5 minutes. Where indicated, the cells were treated with peptides (100 ng/ml) prior to induction at 37° C. for 10 minutes (100 ng/mL CD44v6 peptide or control peptide). Following the induction with HGF, cells were washed with ice-cold phosphate-buffered saline (PBS). To detect activated Met and ERK, cells were lysed in sodium dodecyl sulfate (SDS)—sample buffer containing 100 mM dithiothreitol (DTT), boiled and subjected to western blot analysis using antibodies against phospho-Met and ERK. The loading controls were performed on the same blot after stripping (62.5 mM Tris, pH 6.8, 2% SDS, 0.8% DTT) by probing with the Met respectively Erk antibody. Blots were stained using the enhanced chemiluminescence system (Thermo Fisher Scientific, Schwerte, Germany). Bands in western blot analysis were quantified with the program Image J (National Institutes of Health).
# To expand the studies to human pancreatic tumors, the highly metastatic human pancreatic carcinoma cells L3.6pl (Bruns, et al. Neoplasia (1999), 1(1):50-62) were investigated. These cells originate from the […] cells that have been passaged several times in the liver and the pancreas, a step that rendered them more and more metastatic. It was confirmed that Met is dependent on CD44v6 for its activation and signaling in these cells (FIG. 19A). The L3.6pl cells were treated with HGF in the presence or absence of a human v6 peptide of SEQ ID NO: 2 or SEQ ID NO:6 and Met activation and downstream signaling to ERK was measured. Phosphorylation of both Met and ERK was inhibited by the human v6 peptide. Treatment with a corresponding rat v6 peptide (ctrl peptide, SEQ ID NO: 10 or 11) had no influence on receptor activation and signal transduction (FIG. 19A).
# The contribution of CD44v6 to Met signaling in the human epithelial pancreatic cancer cells L3.6pl (derived from Colo 357), the cervix carcinoma cells HeLa and the colon cancer cells HT29 were analysed using the CD44v6 peptide (v6 14mer; v6 5mer tested as well, data not shown).
# BSp73ASs6 cells [2] = test: Rat syngeneic model, subcutaneous BSp73ASs6 tumors, treatment from one week (metastasis formation); assay type: in vivo; conditions: rats, s.c. BSp73ASs6
# Experimental: In the case of the rat syngeneic model, 1×10^6 pancreatic cells (BSp73AS and its transfectants) were subcutaneously injected into the right posterior flank of the animals. Tumors developed for four weeks. During this time period animals injected with BSp73ASs6 cells expressing Met-shRNA or control-shRNA received doxycycline in the drinking water. At the end of the experiment, primary tumors were isolated. Lungs and axillary lymph nodes were analyzed. The tissues were incubated for 24 h in a zinc-fixative (0.5 g calcium acetate, 5.0 g zinc acetate, 5.0 g zinc chloride, in 1 L 0.1 M Tris pH 7.4) and embedded in paraffin for further analysis. In case of peptide or antibody treatment tumors developed for one week before the first treatment. Where indicated, animals received 200 μg of peptide or antibody per injection three times per week for four weeks. Tumor growth was monitored weekly using a caliper Animals were killed at day 28 or 30 after start of the treatment.
# For histomorphological analysis paraffin-embedded sections of lungs were stained with hematoxylin and eosin and periodic acid-Schiff (H&E or PAS). Serial sections of the whole tissue blocks were examined by analyzing slices every 20 μm; in each slice, the presence and the extension of the metastatic deposit was assessed, according to the procedure routinely used by pathologists to evaluate the presence of micrometastases.
# Rat peptides had the sequences KEKWFENEWQGKNP (SEQ ID NO: 10) and NEWQG (SEQ ID NO: 11). BSp73ASs6 cells were subcutaneously injected into syngeneic rats and rat CD44v6 peptides of SEQ ID NO: 10 or SEQ ID NO: 11 (or mouse control peptides) or the CD44v6 antibody (or IgGs as a control) were injected intra-tumoral or intravenously three times a week. […] This is compatible with the fact that also BSp73AS cells or BSp73ASv1-10Δv6 cells can induce the formation of primary tumors similarly to the v6 transfectants.
# L3.6pl cells [3] = test: Human orthotopic pancreatic cancer model, L3.6pl cells in nude mice, treatment from day 7; assay type: in vivo, mouse; conditions: L3.6pl orthotopic model; 5mer instead of 14mer
# Experimental: In the case of the human orthotopic model, L3.6pl pancreatic carcinoma cells (passage 24-26) were suspended in Hank's balanced salt solution (Invitrogen, Karlsruhe, Germany) after trypsinization. The cells were injected orthotopically in the pancreas of male nude mice as described (Bruns C J et al. (1999) Neoplasia 1(1):50-62). Two groups of 15 mice each were injected i.p. 7 days later with either the human v6 peptide respectively rat control peptide (20 μg). For all experiments described and depicted herein either the rat 14mer control peptide or the human 14mer peptide were used. All experiments were then repeated with the rat 5mer control peptide or the human 5mer peptide (N-R-W-H-E, SEQ ID NO: 2). […] The injection was repeated three times per week for 21 days. Two days after the last treatment the animals were killed.
# 7 μm thick paraffin sections were deparaffinized and rehydrated. For P-Met staining antigen unmasking was achieved by boiling the slides in 1 mM EDTA pH 8.0 followed by incubation for 15 minutes at a sub-boiling temperature, for CD31 staining the sections were treated with Proteinase K (8 μg/ml) for […] at 37° C. For immunofluorescence staining of P-Met, unspecific binding was blocked with 5% goat serum (DAKO, Glostrup, Denmark) (diluted in 1×PBS/0.3% Triton X-100) for 60 minutes. In the case of immunohistochemistry, endogenous peroxidases were at first blocked with 3% H2O2 in PBS followed by incubation with biotin blocking system (Dako, Glostrup, Denmark) and then unspecific binding was inhibited by incubation with 5% FCS in PBS was used for blocking. The sections were incubated with the P-Met antibody (D26, dilution 1:50 in 1×PBS/1% BSA/0.3% Triton X-100), Met antibody (C-28, dilution 1:50), GFP antibody (sc-101525, dilution 1:50) or CD31 antibody (5 μg/ml) over night or VFF18 (5 μg/ml) o/n at 4° C. After washing in PBS the sections were incubated with Alexa Fluor R 546 goat anti-rabbit (in case of immunofluorescence P-Met and Met staining, dilution 1:500) or a biotinylated secondary antibody (for immunohistochemical stainings rabbit anti-rat antibody for VFF18 and CD31, goat anti-rabbit for P-Met, cleaved Caspase-3 and cleaved Caspase-8 and rabbit anti-mouse for GFP, dilution 1:500) for 45 minutes. For DAB staining the sections were treated with a streptavidin-peroxidase conjugate (Dako, Glostrup, Denmark) and developed with DAB (3,3′-diaminobenzidine) substrate system (3,3′-diaminobenzidine; Biozol, Eching, Germany) For immunofluorescence DAPI was used for nuclear staining.
# To test the effect of the peptide on tumor growth and metastasis formation the L3.6pl cells were orthotopically injected into the pancreas of immunosuppressed mice (NCI-nu). […] The primary tumor expresses a high amount of CD44v6 (FIG. 19B). […] Indeed, human HGF in a concentration of 3375 pg/ml was detected in the supernatant (see Material and Methods) after 5 days of culture (data not shown).
# HT29 colon cancer cells = test: Scatter assay, HGF-induced HT29 colon cancer cells; assay type: cell-based, human; conditions: HGF 10 ng/ml, pre-incubated with peptide
# Experimental: A scatter assay was performed additionally. HT29 colon cancer cells were grown in medium containing 10% FCS. One day after seeding, the cells were starved. On the third day, the cells were induced with HGF (10 ng/ml) and pre-incubated with either no peptide, ctrl-peptides (SEQ ID NO: 15), non-pegylated v6-peptides (SEQ ID NO: 11) or the pegylated peptides, namely PEG-rat control peptide and PEG-rat CD44v6 peptide.
# CD44v6 [4] = test: Activation assay with pegylated peptides: HGF-induced Met and ERK activation in BSp73ASs6 cells; assay type: cell-based, rat
# Experimental: The PEG-control peptide and PEG-rat CD44v6 peptide were compared for their ability to block HGF induced activation of the receptor tyrosine kinase Met and ERK.
# Rat pancreatic cancer cells BSp73ASs6 (also designated Ass6) were incubated for 10 min at 37° C. with either ctrl-peptides (SEQ ID NO: 15), non-pegylated v6-peptides (SEQ ID NO: 11) and increasing concentrations of the pegylated peptides, namely PEG-rat control peptide and PEG-rat CD44v6 peptide, before induction with HGF (10 ng/ml; 5 min at 37° C.).
# Activation of ERK and Met was determined by standard SDS and Western Blotting techniques using a phospho-Met and phospho-Erk specific antibody (phospho-Met clone D16 cell signaling, phospho-Erk p42/44 cell signaling)
# BSp73ASs6 tumors = conditions: rat
# Text: To avoid autofluorescence of fur, rats were shaved around the tumor prior to imaging. Subsequently, animals were anesthetized using 2% isoflurane and gently fixed on the devices' heated plate for the entire time of data acquisition. To reduce fluorescence background, rats were fed with chlorophyll-reduced food (Provimi Kliba AG, Kaiseraugst, Switzerland) for one week prior NIRF imaging. All in vivo analyses were preceded by native scans of animals without any injection of the fluorescent probe. For in vivo analysis, rats were injected with 200 μg DY681-labeled rat v6 11 mer peptide or the human v6 11 mer peptide via the tail vein. Controls were injected with the equal amount of DY681-labeled mouse v6 11mer peptide. […] All peptides were labeled with the fluorescent dye DY681. Data were acquired at the indicated time after injection of the peptides. […]
# DY681 fluorescence was measured using excitation at 670 nm in combination with a 700 nm long-pass emission filter. […] Data sets were analyzed with OptiView (ART).
# For in vivo experiments, BSp73ASs6 cells were injected subcutaneously into syngeneic rats. […] The accumulation of the fluorescence was measured in the tumor region by Optix MX2 at the indicated time points. […] Then, in vivo binding kinetics of the Dy681-labeled v6 peptides to the subcutaneous tumors were determined. […]
# L3.6pl cells [5] = test: Staining of fixed L3.6pl cells with DY681-labeled peptides (confocal microscopy); assay type: binding, human; conditions: DY681-labeled peptide
# Experimental: (§2) ASs6 or L3.6pl cells were seeded at 5,000 cells/well of a Lab-TekR Chamber Slide™ (Nunc, Napierville, Ill., USA). On the following day the cells were washed with cold PBS and fixed with 4% Formalin for 30 min at RT. Unspecific binding was blocked with 1% BSA in PBS for 1 hour at RT. The cells were incubated for 1 hour with the DY681-labeled peptides. After three washing steps with PBS the cover slips were mounted with Fluorescence Mounting Medium (Dako, Glostrup, Denmark) and the immunofluorescence was measured by a laser scanning confocal microscope Leica TCS2 SP2 (Exton, Pa., USA) and processed using Leica confocal software. A 20× objective was used for imaging.
# CD44v6 [6] = test: HGF-induced Met/Erk activation in BSp73ASs6 cells with DY681-labeled peptides; assay type: cell-based, rat; conditions: FIG. 18A right side, activation of Erk determined
# Experimental: as §1
# In order to test the specificity of the binding of CD44v6 peptides to the tumor site and to the metastases and to estimate the binding kinetics in vivo, near infrared fluorescence (NIRF) imaging with the Optix MX2 was. For this purpose two CD44v6 peptides were labeled with the fluorophore DY681: a rat specific one, rv6 pep Dy681 and a mouse specific one, mv6 pep Dy681, as a control.
# BSp73ASs6 cells [7] = test: Staining of fixed BSp73ASs6 cells with DY681-labeled peptides (confocal microscopy); assay type: binding, rat; conditions: 1 hour with DY681-labeled peptide
# Experimental: as §2
# L3.6pl tumors = test: In vivo and ex vivo imaging (Pearl Imager) of mice with L3.6pl tumors; design: species or system mouse; conditions: 24 h after injection
# Experimental: In vivo imaging of the mice with the L3.6pl tumors was performed using the Pearl™ Imager (LI-COR Biosciences, Bad Homburg, Germany) The system uses two lasers (685 and 785 nm) for excitation and a charge-coupled device detector for signal detection. The laser excitation enables a deep tissue penetration. With the near-infrared detection a high sensitivity due to the reduced tissue auto-fluorescence is achieved. In order to standardize the images we made use of the Pearl Cam Software. The animals were fed with chlorophyll-reduced food to reduce the fluorescence background one week before imaging (Regime 210, safe-diets, Augy, France). Prior to imaging the mice were anesthetized with 2.0% isoflurane. Animals were placed on the heated plate of the imager and continuous delivery of isoflurane was achieved through a nose cone in the imaging drawer. Images were captured at white light, 700 and 800 nm Animals were imaged prior to i.v. peptide injection and 24 h after injection with either DY681-labeled human v6 peptide or DY681-labeled rat v6 peptide as control Immediately after each imaging session animals were killed, tumor, liver and spleen isolated and scanned ex vivo at white light, 700 and 800 nm.
# Then, the specificity of binding of the human CD44v6 peptide to the tumor in vivo was examined using the small animal imaging system Pearl Impulse. […]
# [8] = peptide before induction with 10 ng/ml HGF
# [9] = peptide 10 min 37° C., HGF 10 ng/ml 5 min
substance,measurement,setting,value
"NEWQG [SEQ ID NO: 11, rat CD44v6 5mer peptide]",HGF-induced phosphorylation/activation of ERK,CD44v6 [1]; [8],no influence
same,HGF-induced phosphorylation/activation of Met,CD44v6 [1]; [8],no influence
same,Metastasis (axillary lymph nodes and lungs),"BSp73ASs6 cells [2]; 200 μg per injection i.t. or i.v., three times a week, four weeks, start after one week",completely inhibited metastasis
same,Metastasis and micro-metastasis in lung sections (PAS and H&E histology),BSp73ASs6 cells [2]; 200 μg three times a week,no metastasis nor micro-metastasis could be detected
same,Outgrowth of primary tumors,BSp73ASs6 cells [2]; treatment for 28 days,not influenced
same,"Outcome of all experiments repeated with 5mer peptides, compared with 14mer",L3.6pl cells [3],same results as for the 14mer peptides
same,Dissociation and migration of cells away from cell cluster (scatter),HT29 colon cancer cells,lead to dissociation and migration of cells away from these cell cluster
"PEG-NEWQG ({MeO‑PEG‑COOH}-NEWQG; also: PEG 750 or 2000 Da) [PEG-rat CD44v6 peptide, rat 5mer NEWQG coupled to MeO-PEG-COOH (750 Da and 2000 Da)]","Efficiency of inhibition of ERK, pegylated vs. non-pegylated peptides",CD44v6 [4]; HGF 10 ng/ml,even more efficient
same,HGF dependent activation of ERK,CD44v6 [4]; [9],efficient in inhibiting
same,HGF dependent activation of Met,CD44v6 [4]; [9],efficient in inhibiting
same,Dissociation and migration of cells away from cell cluster (scatter),HT29 colon cancer cells,lead to dissociation and migration of cells away from these cell cluster
"WFENEWQGKNP (also: DY681 fluorescent dye label) [rv6 pep Dy681, rat 11mer labeled with the fluorescent dye DY681]",Ex vivo fluorescence in excised tumors and lungs,BSp73ASs6 tumors,Fluorescence intensities could only be detected in tumors and in specific areas of the lungs
same,Binding to L3.6pl cells in cell culture,L3.6pl cells [5],not
same,Met activation (HGF-induced) with DY681-labeled peptides,CD44v6 [6],inhibited Met activation
same,Binding to BSp73ASs6 cells in tissue culture,BSp73ASs6 cells [7],bound to BSp73ASs6 cells
"WFGNRWHEGYR (also: DY681 fluorescent dye label) [labeled human v6 peptide, human 11mer labeled with the fluorescent dye DY681]",Met activation (HGF-induced) with DY681-labeled peptides,"CD44v6 [1]; FIG. 20A right side, activation of Erk determined",inhibited Met activation
same,Binding to L3.6pl cells in cell culture,L3.6pl cells [5],bound to these cells in cell culture
same,"Ex vivo fluorescence of isolated organs (tumor, liver, spleen)",L3.6pl tumors; mice with L3.6pl tumors,binding not only to primary tumors but also to areas of the liver
same,Accumulation of fluorescence in the tumor in vivo,"L3.6pl tumors; mice with orthotopic L3.6pl tumors, 20 μg i.v.",accumulated specifically in the tumor
